In brackets after ≈: the same amount, converted by molar mass. Several values for one entry are separate records, joined by “and”; a condition that tells them apart may be missing. Identical values can stand only once. Counter-ions that a name gives are not always drawn. Like-named read-outs stand apart in the source and are kept apart here.
Key:
E. coli Juhl A15119 = assay: Antibiotic activity in nutrient broth (MIC), E. coli Juhl; type: cell-based; settings: Escherichia coli, JUHLA15119, 10^-4 dilution, Ex. 1/Ex. 2 figures recalculated on penicillin content
Excerpt: (§1) ANTIBIOTIC ACTIVITY IN NUTRIENT BROTH
(§2) **Dilution of overnight broth culture
(§3) +These figures were […] on the basis that there was only 60.61%
(§4) amoxicillin in the sample; in other words, the numerical values were
(§5) lowered, i.e. improved.
(§6) ----//These figures were recalculated on the basis that there was only

Pr. mirabilis A9900 = assay: Antibiotic activity in nutrient broth (MIC), Pr. mirabilis; type: cell-based; settings: Proteus mirabilis, 10^-4 dilution, Ex. 1/Ex. 2 figures recalculated on penicillin content
Excerpt: as §1, §2, §3, §4, §5, §6

Bioassay = settings: theory 730 (Ex. 1) / 596 (Ex. 2) mcg./mg.
Pr. morganii A15153 = assay: Antibiotic activity in nutrient broth (MIC), Pr. morganii; type: cell-based; settings: Morganella morganii, 10^-4 dilution, Ex. 1/Ex. 2 figures recalculated on penicillin content
S. aureus bx 1633 A9606 = assay: Antibiotic activity in nutrient broth (MIC), S. aureus bx 1633; type: cell-based; settings: Ex. 1/Ex. 2 figures recalculated on penicillin content
Ent. cloacae A9659 = assay: Antibiotic activity in nutrient broth (MIC), Ent. cloacae A9659; type: cell-based; settings: Enterobacter cloacae, 10^-4 dilution, Ex. 1/Ex. 2 figures recalculated on penicillin content
Ent. cloacae A9656 = assay: Antibiotic activity in nutrient broth (MIC), Ent. cloacae A9656; type: cell-based; settings: Enterobacter cloacae, 10^-4 dilution, Ex. 1/Ex. 2 figures recalculated on penicillin content
[1] = Oral and intramuscular rat blood levels; type: in vivo
Hygroscopicity = type: physicochemical; settings: solid product
E. coli A9675 = assay: Antibiotic activity in nutrient broth (MIC), E. coli A9675; type: cell-based; settings: Escherichia coli, 10^-4 dilution, Ex. 1/Ex. 2 figures recalculated on penicillin content
Excerpt: as §1, §2, §3, §4, §5, §6

K. pneumoniae A9977 = assay: Antibiotic activity in nutrient broth (MIC), K. pneumoniae A9977; type: cell-based; settings: Klebsiella pneumoniae, 10^-4 dilution, Ex. 1/Ex. 2 figures recalculated on penicillin content
Excerpt: as §1, §2, §3, §4, §5, §6

[2] = Mouse blood levels after intramuscular administration; settings: 10 mg./kg., average of six animals, unit assumed
Ps. aeruginosa A9843A = assay: Antibiotic activity in nutrient broth (MIC), Ps. aeruginosa; type: cell-based; settings: Pseudomonas aeruginosa
Str. pyogenes A9604 = assay: Antibiotic activity in nutrient broth (MIC), Str. pyogenes; type: cell-based; settings: Streptococcus pyogenes, 45% AAB + 5% serum + 50% broth, 10^-3 dilution of overnight culture, Ex. 1/Ex. 2 figures recalculated on penicillin content
Excerpt: as §1
(§7) *45% AAB + 5% serum + 50% broth
as §2, §3, §4, §5, §6

[3] = Hydrolysis to parent penicillin (paper strip and liquid chromatography); type: in vitro ADME; settings: 0.2 mg./ml., pH 6.5-7.0 buffer or serum; for hydrolysis in water to parent penicillin: room temperature and 37° C.
S. aureus Smith A9537 = assay: Antibiotic activity in nutrient broth (MIC), S. aureus Smith; type: cell-based; settings: Staphylococcus aureus, 10^-4 dilution, Ex. 1/Ex. 2 figures recalculated on penicillin content
Excerpt: as §1, §2, §3, §4, §5, §6

Ser. marcescens A20019 = assay: Antibiotic activity in nutrient broth (MIC), Ser. marcescens; type: cell-based; settings: Serratia marcescens, 10^-4 dilution, Ex. 1/Ex. 2 figures recalculated on penicillin content
Excerpt: as §1, §2, §3, §4, §5, §6

[4] = Stability of reconstituted aqueous solution; type: physicochemical
Ent. cloacae A9657 = assay: Antibiotic activity in nutrient broth (MIC), Ent. cloacae A9657; type: cell-based; settings: Enterobacter cloacae, 10^-4 dilution, Ex. 1/Ex. 2 figures recalculated on penicillin content
[5] = In vitro antibacterial spectrum / activity; type: cell-based; settings: vs amoxicillin (Ex. 1) or ampicillin (Ex. 2)
Str. pneumoniae A9585 = assay: Antibiotic activity in nutrient broth (MIC), Str. pneumoniae; type: cell-based; settings: Streptococcus pneumoniae, 45% AAB + 5% serum + 50% broth, 10^-3 dilution of overnight culture, Ex. 1/Ex. 2 figures recalculated on penicillin content
Excerpt: as §1, §7, §2, §3, §4, §5, §6

Sal. enteritidis A9531 = assay: Antibiotic activity in nutrient broth (MIC), Sal. enteritidis; type: cell-based; settings: Salmonella enterica, 10^-4 dilution, Ex. 1/Ex. 2 figures recalculated on penicillin content
Excerpt: as §1, §2, §3, §4, §5, §6

[6] = system: S. aureus Meth.-res. A15097; assay: Antibiotic activity in nutrient broth (MIC), S. aureus Meth.-res.; type: cell-based; settings: Staphylococcus aureus
K. pneumoniae A15130 = assay: Antibiotic activity in nutrient broth (MIC), K. pneumoniae A15130; type: cell-based; settings: Klebsiella pneumoniae
[7] = Mouse blood levels after oral administration; settings: 100 mg./kg., tested twice, average of 6 mice each
[8] = cited from earlier work
[9] = prior-art salt; cited from earlier work
[10] = in vivo, iv; cited from earlier work
[11] = Staphylococcus aureus, BX1633A9606, 10^-3 dilution, read-out: MIC
[12] = SMITHA9537, nutrient broth, no serum
[13] = 3.5 hours, in µg/mL (unit assumed)

Structure (SMILES) | MIC (E. coli Juhl A15119) | MIC (Pr. mirabilis A9900) | MIC (Ent. cloacae A9659) | MIC (E. coli A9675) | MIC (K. pneumoniae A9977) | Mouse blood level ([2]; 0.25 hours) | Mouse blood level ([2]; 0.5 hours) | Mouse blood level ([2]; 1 hour) | Mouse blood level ([2]; 1.5 hours) | MIC (Str. pyogenes A9604) | MIC (S. aureus Smith A9537; SMITHA9537, +50% serum) | MIC (S. aureus Smith A9537; [12]) | MIC (Ser. marcescens A20019) | MIC (Ent. cloacae A9657) | MIC (Str. pneumoniae A9585) | MIC (Sal. enteritidis A9531) | other results
CC1(C)S[C@@H]2[C@H](N3C(=O)[C@@H](c4ccc(O)cc4)NC3c3ccc(S(=O)(=O)O)o3)C(=O)N2[C@H]1C(=O)O (mixture of isomers) [Example 1, Disodium 6-[D(-)2-(±)5-Sulfo-2-furyl-5-oxo-4-p-hydroxyphenyl-1-imidazolidinyl]penicillanate] | 1 µg/mL | 0.25 µg/mL | 63 µg/mL | 16 µg/mL | 0.13 µg/mL | 7.3 µg/mL | 5.4 µg/mL | 2.1 µg/mL | 1.1 µg/mL | 0.0005 µg/mL | 0.13 µg/mL | 0.06 µg/mL | 32 µg/mL | 63 µg/mL | 0.0005 µg/mL | 0.13 µg/mL | Bioassay (Bioassay): 696 µg/mg; MIC (Pr. morganii A15153): > 125 µg/mL; MIC (S. aureus bx 1633 A9606; 10^-2 dilution): > 125 µg/mL; MIC (S. aureus bx 1633 A9606; [11]): > 125 µg/mL; MIC (Ent. cloacae A9656): > 125 µg/mL; Intramuscular rat blood levels compared with parent penicillin [1]: substantially equal to those of amoxicillin; Oral rat blood levels compared with parent penicillin [1]: substantially equal to those of amoxicillin; hygroscopicity (Hygroscopicity): nonhygroscopic; MIC (Ps. aeruginosa A9843A): > 125 µg/mL; hydrolysis in water to parent penicillin [3]: rapidly hydrolyzes in water to amoxicillin; stable at room temperature (diluted solution) ([4]; 10 to 20 mg./ml. of activity): at least 24 hours; in vitro antibacterial spectrum compared with parent penicillin [5]: substantially equivalent to that of amoxicillin; MIC [6]: > 125 µg/mL; MIC (K. pneumoniae A15130): 125 µg/mL; Blood level ([7]; 0.5 hours, listed as Ex. 1, in µg/mL (unit assumed)): 6.3 and 9.5; Blood level ([7]; 1 hour, listed as Ex. 1, in µg/mL (unit assumed)): 7.2 and 10.4; Blood level ([7]; 2 hours, listed as Ex. 1, in µg/mL (unit assumed)): 3.9 and 4.9; Blood level [7, 13]: 1.1
CC1(C)S[C@@H]2[C@H](N3C(=O)[C@@H](c4ccccc4)NC3c3ccc(S(=O)(=O)O)o3)C(=O)N2[C@H]1C(=O)O (mixture of isomers) [Example 2, Disodium 6-[D(-)2-(±)5-Sulfo-2-furyl-5-oxo-4-phenyl-1-imidazolidinyl]penicillanate] | 2 µg/mL | 0.13 µg/mL | 63 µg/mL | 16 µg/mL | 0.5 µg/mL | 6.3 µg/mL | 3.7 µg/mL | 1.3 µg/mL | 0.6 µg/mL | 0.004 µg/mL | 0.06 µg/mL | 0.06 µg/mL | 32 µg/mL | 32 µg/mL | 0.004 µg/mL | 0.013 µg/mL | Bioassay (Bioassay): 578 µg/mg; MIC (Pr. morganii A15153): > 125 µg/mL; MIC (S. aureus bx 1633 A9606; 10^-2 dilution): > 125 µg/mL; MIC (S. aureus bx 1633 A9606; [11]): > 125 µg/mL; MIC (Ent. cloacae A9656): > 125 µg/mL; Intramuscular rat blood levels compared with parent penicillin [1]: substantially equal to those of ampicillin; Oral rat blood levels compared with parent penicillin [1]: substantially equal to those of ampicillin; hygroscopicity (Hygroscopicity): non-hygroscopic; MIC (Ps. aeruginosa A9843A): > 125 µg/mL; hydrolysis in water to parent penicillin [3]: rapidly hydrolyzes in water; hydrolyzed at 0 time by liquid chromatography ([3]; to ampicillin, 0 time): 60-70%; stable at room temperature (reconstituted aqueous solution) ([4]; 250 mg./ml. of activity): at least 24 hours; in vitro antibacterial spectrum compared with parent penicillin [5]: substantially equivalent to that of ampicillin; MIC [6]: > 125 µg/mL; MIC (K. pneumoniae A15130; nutrient broth, 10^-4 dilution, Ex. 1/Ex. 2 figures recalculated on penicillin content, read-out: MIC): 63 µg/mL; Blood level ([7]; 1 hour, listed as Ex. 2, in µg/mL (unit assumed)): 2.8 and 5.2; Blood level ([7]; 2 hours, listed as Ex. 2, in µg/mL (unit assumed)): 1.4 and 2.2; Blood level ([7]; 3.5 hours, listed as Ex. 2, in µg/mL (unit assumed)): 0.4 and 0.6
CC1(C)S[C@@H]2[C@H](NC(=O)[C@H](N)c3ccc(O)cc3)C(=O)N2[C@H]1C(=O)O [Amoxicillin, D(-)-α-amino-p-hydroxybenzylpenicillin, reference compound] | 0.5 µg/mL (≈ 1.37 µM) | ≤ 0.016 µg/mL | – | 8 µg/mL (≈ 21.9 µM) | – | 7.7 µg/mL | 4.3 µg/mL | 1.9 µg/mL | 0.6 µg/mL | ≤ 0.002 µg/mL | 0.008 µg/mL (≈ 0.0219 µM) | 0.008 µg/mL (≈ 0.0219 µM) | 16 µg/mL (≈ 43.8 µM) | 63 µg/mL (≈ 172 µM) | ≤ 0.002 µg/mL | 0.008 µg/mL (≈ 0.0219 µM) | Blood level ([7]; 0.5 hours, in µg/mL (unit assumed)): 7.9 and 13.9; Blood level ([7]; 1 hour, in µg/mL (unit assumed)): 7.4 and 12.4; Blood level ([7]; 2 hours, in µg/mL (unit assumed)): 4.6 and 5.8; Blood level [7, 13]: 1.5 and 0.8
CC1(C)S[C@@H]2[C@H](NC(=O)[C@H](N)c3ccccc3)C(=O)N2[C@H]1C(=O)O [Ampicillin, D(-)-α-aminobenzyl-penicillin, reference compound] | 2 µg/mL (≈ 5.72 µM) | 0.25 µg/mL (≈ 0.715 µM) | 63 µg/mL (≈ 180 µM) | 16 µg/mL (≈ 45.8 µM) | 0.25 µg/mL (≈ 0.715 µM) | – | – | – | – | 0.008 µg/mL | 0.13 µg/mL (≈ 0.372 µM) | 0.13 µg/mL (≈ 0.372 µM) | 32 µg/mL (≈ 91.6 µM) | 32 µg/mL (≈ 91.6 µM) | 0.008 µg/mL | 0.013 µg/mL (≈ 0.0372 µM) | –
CC1(C)S[C@@H]2[C@H](N3C(=O)[C@@H](c4ccccc4)NC3(C)C)C(=O)N2[C@H]1C(=O)O [hetacillin] | – | – | – | – | – | – | – | – | – | – | – | – | – | – | – | – | stability in aqueous solution compared with parent penicillins ([8]; as sodium salts): somewhat more stable
CC1(C)S[C@@H]2[C@H](NC(=O)[C@H](N)c3ccc(O)cc3)C(=O)N2[C@H]1C(=O)O [potassium salt] | – | – | – | – | – | – | – | – | – | – | – | – | – | – | – | – | stable (reconstituted with water) ([8]; 250 mg./ml., room temperature): 15 min; precipitation from solution on standing ([8]; reconstituted with water, 250 mg./ml.): precipitates out of solution on standing
CC1(C)S[C@@H]2[C@H](NC(=O)[C@H](N)c3ccccc3)C(=O)N2[C@H]1C(=O)O [sodium salt of ampicillin] | – | – | – | – | – | – | – | – | – | – | – | – | – | – | – | – | hygroscopicity [9]: hygroscopic; irritation on injection [10]: somewhat irritating on injection; shelf-life of aqueous solution ([8]; room temperature, reconstituted at 250 mg./ml.): about one
